# Experiments:
# [1] = Evaluation of total body clearance (CLtot), intravenous administration; format: in vivo, Sprague-Dawley (SD); conditions: rat (SD), intravenous administration 0.5-10 mg/kg; CLtot = dose/AUC
# Protocol: Dose: Intravenous administration with designated doses was selected. (Doses were changed depending on compounds.) • 0.5-10 mg/kg (n=2-3) Preparation of dosing formulation: The dosing solution was prepared by dissolving in an adequate solvent. Administration method: The dosing solution was injected into the tail vein by a syringe with a needle Blood sampling: The blood was collected at the scheduled time and obtained the plasma. Plasma concentrations of the compound were measured by LC/MS/MS. Statistical analysis: Area under the plasma concentration-time curve (AUC) of the compound was calculated by pharmacokinetic analysis software, WinNonlin™ and CLtot was calculated by dividing the dose by AUC.
# HIV-1 PR = HIV-1 PR (Human immunodeficiency virus type 1 group M subtype B, UniProt P04585); assay: HIV-protease inhibitory activity assay (FRET peptide substrate); format: biochemical; conditions: Test Example 1
# Method in brief: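 HIV-1 PR (0.83 ng) preincubated with compounds 20 min at room temperature in 0.1 mol/L NaAc, 0.5 mol/L NaCl, 1 mmol/L EDTA, 1 mmol/L DTT, 0.05% Tween 20, pH 4.8. Cleavage of HiLyte Fluor 488/QXL 520 FRET peptide (2 μmol/L) read after 60 minutes at 485/535 nm; IC50 from four-parameter logistic fit.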
SMILES,rat_CLt [1],IC50 (HIV-1 PR)
COc1ccc(S(=O)(=O)N(CC(C)C)CC(O)C(Cc2ccc(N3CCC(Oc4ccccc4C(=O)Nc4sc5c(c4C(=O)O)CC(C)(C)CC5)C3)cc2)NC(=O)OC2COC3(C)OCCC23)cc1 (stereo not shown) [Compound I-588],0.291 mL/min/kg,3.29 nM
COc1ccc(S(=O)(=O)N(CC(C)C)CC(O)C(Cc2ccc(NCc3ccc(OC)cc3C(=O)Nc3sc4c(c3C(=O)O)CC(C)(C)CC4)cc2)NC(=O)OC2COC3(C)OCCC23)cc1 (stereo not shown) [Compound I-580],0.0683 mL/min/kg,3.23 nM
COc1ccc(S(=O)(=O)N(CC(C)C)CC(O)C(Cc2ccc(NCc3ccc4scc(C(=O)Nc5sc6c(c5C(=O)O)CC(C)(C)CC6)c4c3)cc2)NC(=O)OC2COC3(C)OCCC23)cc1 (stereo not shown) [Compound I-440],0.871 mL/min/kg,4.5 nM
CN(Cc1ccccc1C(=O)Nc1sc2c(c1C(=O)O)CC(C)(C)CC2)c1ccc(CC(NC(=O)OC2COC3(C)OCCC23)C(O)CN(CC2CCCC2)S(=O)(=O)c2ccc3ncsc3c2)cc1 (stereo not shown) [Compound I-636],0.372 mL/min/kg,4.37 nM
COc1ccc(S(=O)(=O)N(CC(C)C)CC(O)C(Cc2ccc(NCc3c(-c4sc5c(c4C(=O)O)CC(C)(C)CC5)ccc4ccccc34)cc2)NC(=O)OC2COC3(C)OCCC23)cc1 (stereo not shown) [Compound I-531],0.0543 mL/min/kg,6.98 nM
COc1ccc(S(=O)(=O)N(CC(C)C)CC(O)C(Cc2ccc(NCc3cc4ccccc4c(-c4sc5c(c4C(=O)O)CC(C)(C)CC5)n3)cc2)NC(=O)OC2COC3(C)OCCC23)cc1 (stereo not shown) [Compound I-453],0.593 mL/min/kg,2.63 nM
COc1ccc(S(=O)(=O)N(CC(C)C)CC(O)C(Cc2ccc(N(C)Cc3ccc(C)cc3-c3sc4c(c3C(=O)O)CC(C)(C)CC4)cc2)NC(=O)OC2COC3(C)OCCC23)cc1 (stereo not shown) [Compound I-488],0.501 mL/min/kg,2.2 nM
COc1ccc(S(=O)(=O)N(CC(C)C)CC(O)C(Cc2ccc(N3CCC(Cc4ccccc4-c4sc5c(c4C(=O)O)CC(C)(C)CC5)CC3)cc2)NC(=O)OC2COC3(C)OCCC23)cc1 (stereo not shown) [Compound I-666],0.668 mL/min/kg,4.7 nM
COc1ccc(S(=O)(=O)N(CC2CCC2)CC(O)C(Cc2ccc(NCc3cc(C(F)(F)F)ccc3-c3sc4c(c3C(=O)O)CC(C)(C)CC4)cc2)NC(=O)OC2COC3OCCC23)cc1 (stereo not shown) [Compound I-869],1.15 mL/min/kg,6.45 nM
COc1ccc(S(=O)(=O)N(CC(C)C)CC(O)C(Cc2ccc(N(C)Cc3ccc(C(F)(F)F)cc3-c3sc4c(c3C(=O)O)CC(C)(C)CC4)cc2)NC(=O)OC2COC3(C)OCCC23)cc1 (stereo not shown) [Compound I-540],1.5 mL/min/kg,27.8 nM
COc1ccc(S(=O)(=O)N(CC(C)C)CC(O)C(Cc2ccc(NCc3cc([N+](=O)[O-])ccc3-c3sc4c(c3C(=O)O)CC(C)(C)CC4)cc2)NC(=O)OC2COC3(C)OCCC23)cc1 (stereo not shown) [Compound I-567],2.81 mL/min/kg,3.12 nM
COc1ccc(S(=O)(=O)N(CCC(C)C)CC(O)C(Cc2ccc(NCc3ccccc3-c3sc4c(c3C(=O)O)CC(C)(C)CC4)cc2)NC(=O)OC2COC3(C)OCCC23)cc1 (stereo not shown) [Compound I-475],2.28 mL/min/kg,2.42 nM
COc1ccc(S(=O)(=O)N(CC(C)C)CC(O)C(Cc2ccc(N3CC(Oc4ccccc4C(=O)Nc4sc5c(c4C(=O)O)CC(C)(C)CC5)C3)cc2)NC(=O)OC2COC3(C)OCCC23)cc1 (stereo not shown) [Compound I-575],0.267 mL/min/kg,8.32 nM
COc1ccc(S(=O)(=O)N(CC(C)C)CC(O)C(Cc2ccc(N(C)CC3=C(c4sc5c(c4C(=O)O)CC(C)(C)CC5)CCCCC3)cc2)NC(=O)OC2COC3(C)OCCC23)cc1 (stereo not shown) [Compound I-525],0.127 mL/min/kg,5.75 nM
COc1ccc(S(=O)(=O)N(CC(C)C)CC(O)C(Cc2ccc(NCc3cc(N4CCCC4)ccc3-c3sc4c(c3C(=O)O)CC(C)(C)CC4)cc2)NC(=O)OC2COC3(C)OCCC23)cc1 (stereo not shown) [Compound I-480],0.0997 mL/min/kg,2.36 nM
COc1ccc(S(=O)(=O)N(CC(C)C)CC(O)C(Cc2ccc(N(C)Cc3cc(N4CCN(C)CC4)ccc3-c3sc4c(c3C(=O)O)CC(C)(C)CC4)cc2)NC(=O)OC2COC3(C)OCCC23)cc1 (stereo not shown) [Compound I-701],2.71 mL/min/kg,1.49 nM
COc1ccc(S(=O)(=O)N(CC(C)C)CC(O)C(Cc2ccc(N3CCC(c4ccccc4-c4sc5c(c4C(=O)O)CC(C)(C)CC5)C3)cc2)NC(=O)OC2COC3(C)OCCC23)cc1 (stereo not shown) [Compound I-522],0.144 mL/min/kg,13.6 nM
C=CCNc1ccc(-c2sc3c(c2C(=O)O)CC(C)(C)CC3)c(CNc2ccc(CC(NC(=O)OC3COC4(C)OCCC34)C(O)CN(CC(C)C)S(=O)(=O)c3ccc(OC)cc3)cc2)c1 (stereo not shown) [Compound I-676],0.145 mL/min/kg,2.42 nM

SMILES,rat_CLt [1],IC50 (HIV-1 PR)
COc1ccc(S(=O)(=O)N(CC(C)C)CC(O)C(Cc2ccc(N(C)Cc3cccc(-c4sc5c(c4C(=O)O)CC(C)(C)CC5)c3C)cc2)NC(=O)OC2COC3(C)OCCC23)cc1 (stereo not shown) [Compound I-510],1.08 mL/min/kg,10.6 nM
COc1ccc(S(=O)(=O)N(CC(C)C)CC(O)C(Cc2ccc(NCC3=C(c4sc5c(c4C(=O)O)CC(C)(C)CC5)CCCCC3)cc2)NC(=O)OC2COC3(C)OCCC23)cc1 (stereo not shown) [Compound I-524],0.23 mL/min/kg,5.03 nM
COc1ccc(S(=O)(=O)N(CC(C)C)CC(O)C(Cc2ccc(NCc3cc(C4=CCCCC4)ccc3-c3sc4c(c3C(=O)O)CC(C)(C)CC4)cc2)NC(=O)OC2COC3(C)OCCC23)cc1 (stereo not shown) [Compound I-727],0.0528 mL/min/kg,3.38 nM
COc1ccc(S(=O)(=O)N(CC2CCC2)CC(O)C(Cc2ccc(NCc3ccccc3-c3sc4c(c3C(=O)O)CC(C)(C)CC4)cc2)NC(=O)OC2COC3(C)OCCC23)cc1 (stereo not shown) [Compound I-474],1.28 mL/min/kg,2.14 nM
CC1(C)CCc2sc(NC(=O)c3ccccc3CNc3ccc(CC(NC(=O)OC4COC5(C)OCCC45)C(O)CN(CC4CCC4)S(=O)(=O)c4ccc5c(c4)OCO5)cc3)c(C(=O)O)c2C1 (stereo not shown) [Compound I-613],0.0573 mL/min/kg,2.55 nM
COc1ccc(S(=O)(=O)N(CC(C)C)C[C@@H](O)[C@H](Cc2ccc(NCc3cc(-c4ccc(N(C)C)cc4)ccc3-c3sc4c(c3C(=O)O)CC(C)(C)CC4)cc2)NC(=O)O[C@H]2CO[C@@]3(C)OCC[C@@H]23)cc1 [Compound I-720],0.0677 mL/min/kg,2.42 nM
COc1ccc(S(=O)(=O)N(CC(C)C)CC(O)C(Cc2ccc(N(C)Cc3cc(C(F)(F)F)ccc3-c3sc4c(c3C(=O)O)CC(C)(C)CC4)cc2)NC(=O)OC2COC3(C)OCCC23)cc1 (stereo not shown) [Compound I-451],0.211 mL/min/kg,9.46 nM
COc1ccc(S(=O)(=O)N(CC(C)C)CC(O)C(Cc2ccc(NCc3ccc(-c4sc5c(c4C(=O)O)CC(C)(C)CC5)cc3O)cc2)NC(=O)OC2COC3(C)OCCC23)cc1 (stereo not shown) [Compound I-555],5.98 mL/min/kg,1.68 nM
COc1ccc(S(=O)(=O)N(CC(C)C)CC(O)C(Cc2ccc(N(C)Cc3cc4ccccc4cc3-c3sc4c(c3C(=O)O)CC(C)(C)CC4)cc2)NC(=O)OC2COC3(C)OCCC23)cc1 (stereo not shown) [Compound I-582],0.179 mL/min/kg,9.36 nM
COc1ccc(S(=O)(=O)N(CC(C)C)CC(O)C(Cc2ccc(N3CCC(Oc4cc5ccccc5cc4-c4sc5c(c4C(=O)O)CC(C)(C)CC5)C3)cc2)NC(=O)OC2COC3(C)OCCC23)cc1 (stereo not shown) [Compound I-509],0.377 mL/min/kg,1.96 nM
COc1ccc(S(=O)(=O)N(CC(C)C)CC(O)C(Cc2ccc(NCc3cc4ccccc4cc3-c3sc4c(c3C(=O)O)CC(C)(C)CC4)cc2)NC(=O)OC2COC3(C)OCCC23)cc1 (stereo not shown) [Compound I-581],0.204 mL/min/kg,4.02 nM
COc1ccc(S(=O)(=O)N(CC(C)C)CC(O)C(Cc2ccc(NCC3CCCC3c3sc4c(c3C(=O)O)CC(C)(C)CC4)cc2)NC(=O)OC2COC3(C)OCCC23)cc1 (stereo not shown) [Compound I-410],1.07 mL/min/kg,1.99 nM
COc1ccc(S(=O)(=O)N(CC(C)C)C[C@@H](O)[C@H](Cc2ccc(N3CC[C@H](Oc4ccccc4-n4nc5c(c4C(=O)O)CC(C)(C)CC5)C3)cc2)NC(=O)O[C@H]2CO[C@@]3(C)OCC[C@@H]23)cc1 [Compound I-596],0.213 mL/min/kg,1.54 nM
COc1ccc(S(=O)(=O)N(CC(C)C)CC(O)C(Cc2ccc(NCc3cc(OC)c(OC)cc3-c3sc4c(c3C(=O)O)CC(C)(C)CC4)cc2)NC(=O)OC2COC3(C)OCCC23)cc1 (stereo not shown) [Compound I-560],4.5 mL/min/kg,1.65 nM
CC1(C)CCc2sc(-c3ccccc3CNc3ccc(CC(NC(=O)OC4COC5(C)OCCC45)C(O)CN(CC4CCCC4)S(=O)(=O)c4ccc5c(c4)OCO5)cc3)c(C(=O)O)c2C1 (stereo not shown) [Compound I-484],1.58 mL/min/kg,2.43 nM
CC(C)CN(CC(O)C(Cc1ccc(NCc2ccccc2-c2sc3c(c2C(=O)O)CC(C)(C)CC3)cc1)NC(=O)OC1COC2(C)OCCC12)S(=O)(=O)c1ccc(OCF)cc1 (stereo not shown) [Compound I-507],1.61 mL/min/kg,1.85 nM
CC1(C)CCc2sc(NC(=O)c3ccccc3CNc3ccc(CC(NC(=O)OC4COC5OCCC45)C(O)CN(CC4CCCC4)S(=O)(=O)c4ccc5ncsc5c4)cc3)c(C(=O)O)c2C1 (stereo not shown) [Compound I-859],0.2 mL/min/kg,3.41 nM

# Reference: patent publication US20170253607A1, “LONG-ACTING HIV PROTEASE INHIBITOR” (Shionogi & Co., Ltd., priority 2014, published 2017)
